Data on two compounds can be found in paper PMC12550136, “Functional and structural characterization of F1 ‐ATPase with common ancestral core domains in stator ring” (Protein Science : A Publication of the Protein Society, 2025).

This assay deals with T1, F1 ^anc_core.
T1 construct: gene atpD; alpha: TF1 residues 1-94 + alpha^anc NBD/CTD; beta: TF1 residues 1-78 + beta^anc NBD/CTD; N-terminal His-tags; alpha3beta3gamma; expressed in E. coli JM103 delta-unc; with ATP synthase gamma chain
The assay is described as follows: single-molecule rotation assay, […] nm gold colloid, Michaelis-Menten fit. The assay is classed as biochemical, synthetic construct. The settings on record: 50 mM Hepes-KOH pH 7.5, 100 mM KCl.

SMILES strings stand for the structures.

`Nc1ncnc2c1ncn2[C@@H]1O[C@H](COP(=O)(O)OP(=O)(O)OP(O)(O)=S)[C@@H](O)[C@H]1O` [ATPγS]: for the setting “5 mM MgCl2, room temperature”, the Km was determined as 0.68 µM.

On to `Nc1ncnc2c1ncn2[C@@H]1O[C@H](COP(=O)(O)OP(=O)(O)OP(=O)(O)O)[C@@H](O)[C@H]1O` [ATP], for which the Km (5 mM MgCl2, ATP-regenerating system, room temperature) amounted to 2.6 µM.
